Measured values taken from US20220331269A1, “COMPOSITIONS FOR TREATING ACNE” (Botanix Pharmaceuticals Ltd., priority 2017, published 2022).

System: inflammatory lesions in patient with acne
Experiment: 2-(2-ethoxyethoxy)ethanol tested against an active ingredient (for example dapsone gel) in patients with acne
Assay type: in vivo, human
Text: Without being bound to any theory, we believe that the mechanism for this action is the 2-(2-ethoxyethoxy)ethanol may fluidize the lipids on the skin, thereby retarding the formation of microcomedones. If 2-(2-ethoxyethoxy)ethanol keep lipids from “gluing together” the desquamated keratinocytes, the number of clogged follicles, and subsequently the number of inflammatory lesions, would potentially be reduced. 2-(2-ethoxyethoxy)ethanol in the compositions of the present invention provides a means for stopping the formation of acne at its source; lipids and desquamated keratinocytes clogging pores leading to inflammation and formation of comedones. The compositions of the present invention may be active in clearing acne if used as a routine cleanser.

With `CCOCCOCCO` [2-(2-ethoxyethoxy)ethanol] the “number of inflammatory lesions” value was “appears to have activity to reduce the number of inflammatory lesions”.
